# Source: US11819499B2, “Single-dose, ready-to-use injectable formulations” (BioSplice Therapeutics, Inc., priority 2016, dated 2023)
# Marks after values point to notes of the source that are not given here.
# Tests used:
# Assay type in all cases: physicochemical
# [1] = Reslurry experiments (polymorph screen) in 39 pure and binary solvents at RT and 50° C. for 5 days, XRD of wet and dry samples
# Description: Reslurry experiments in various solvents were performed. Approximately 30-80 mg of the starting solid (a non-stoichiometric or stoichiometric hydrate of Form 1 having between 1% and about 20% by weight water) was slurried in 39 different solvents (pure and binary solvents; the ratio of organic solvent/water (V/V) was 95%/5%) at RT and 50° C. for 5 days. Three solvates, one hydrate, and eleven non-solvated forms were identified. […] XRD of both wet and dry samples were scanned (FIG. 12A (dry sample)).
# The slurry experiments identified 3 solvated forms from wet samples (Solvates 1, 2, and 3); 2 non-stoichiometric hydrates of Form 1 (Forms 12 and 13); and 11 non-solvated forms (Forms 1-11). In some instances, similar XRD scans with minor differences were obtained. These were considered to be part of the same class (e.g., the same form). For example, XRD scans of Form 2 and Form 2* were similar and were considered to belong to the same class. The solvated forms were obtained from wet sample analysis; after drying, the sample indicated a different XRD.
# Solvate 1 was obtained from acetone at RT, and after drying, a low crystallinity solid was generated. Solvate 2 was obtained from acetone (at RT) and acetone/water (at RT), and after drying, Form 4** was generated. Solvate 3 was obtained from EtOH/water at RT, and after drying, Form 2 was generated.
# [2] = Exposure to relative humidity / air followed by XRD; conditions: for XRD after drying at 50° C. under vacuum: after air exposure overnight, then dried at 50° C. under vacuum; for XRD after exposure to air overnight: exposed to air overnight
# Description: FIGS. 15A-15D are scans of Form 1 in the presence of increasing relative humidity (RH), an example of a non-stoichiometric or stoichiometric hydrate of polymorph Form 1 of the compound of Formula (I). FIG. 15A is an x-ray powder diffraction scan of Form 1 exposed to 10% RH as the anhydrous Form 1. FIG. 15B is an x-ray powder diffraction scan of Form 1 exposed to 20% RH as a partial hydrate of Form 1. FIG. 15C is an x-ray powder diffraction scan of Form 1 exposed to 30% RH as a hydrate of Form 1 (≈10-12% water uptake). FIG. 15D is an x-ray powder diffraction scan of Form 1 exposed to 90% RH as a full hydrate of Form 1 (≈17-20% water uptake). […] The hydrate lost its water below 30% RH. […] The crystal lattice of Form 1 expanded when water was sorbed, giving rise to XRD peaks at ˜5, ˜7 and ˜11 degrees while maintaining the main XRD pattern. The hydrates of Form 1 of a compound of Formula (I) (Form 11) were fully reversible, and lost water when exposed to % RH of less than 20%, turning Form 11 to hydrated forms of Form 1 and to the anhydrous Form 1. Solvates 1 and 2 solids were exposed to air overnight, and then analyzed by XRD. After the analysis, the solids were dried at 50° C. under vacuum, and then analyzed by XRD again.
# [3] = Competitive slurry experiments between polymorph forms (15 forms mixed, 3-5 days, XRD)
# Description: In order to find out the thermodynamic stability between the different forms, several competitive slurry experiments were carried out. Form 1, Form 2, Form 2*, Form 3, Form 4, Form 4*, Form 4**, Form 5, Form 7, Form 8, Form 9, Form 10, Form 11, Form 11*, and Form 13 (10 mg for each) was mixed and slurried in 2 mL of solvent at both RT and 50° C. The solids were slurried for 3-5 days and then analyzed by XRD.
# [4] = Dynamic vapor sorption (DVS) scan
# Description: The purity of the Form 13 sample was 98.8%; the KF of an undried Form 13 sample was 35.7%.
# [5] = Drying or heating in a DSC chamber followed by XRD (form conversion)
# Description: The Form 1 solid was dried at 75° C. under vacuum overnight, and XRD, DSC, and TGA scans were performed. […] However, the DSC scans indicated the absence of endotherm. The loss of the early peak on the DSC scan had no effect on the XRD trace, showing that the wide endotherm between 50-100° C. on DSC scan was due to the free solvent.
# The Form 1 solid was heated in a DSC chamber to 305° C. (past the endotherm/exotherm around 280° C.), and then scanned by XRD. […] It can be concluded that the endotherm/exotherm around 280° C. might be due to melting/crystallization events.
# The Form 2 solid was heated in a DSC machine to 90° C. (past the wide endotherm between 50-100° C.); to 270° C. (past the endotherm/exotherm around 240° C.); and finally to 330° C. (past the […]). The residual solid was analyzed by XRD. […] The wide endotherm between 50-100° C. might be free solvent or hydrate. […] Thus, the exotherm around 290° C. was a re-crystallization event. According to an XRD and DSC overlay, the behavior of Form 2* was similar to Form 2.
# This has been confirmed for Forms 1 and 2.
# Form 13 solid was heated in a DSC chamber to 170° C. (past the endotherm between 50-100° C.), and then scanned by XRD. […] It can be concluded that the endotherm between 50-100° C. is due to bonded water.
# Form 13 solid was heated in a DSC chamber to 330° C. (past the endotherm/exotherm around 300° C.), and then scanned by XRD. […] It can be concluded that the endotherm/exotherm is due to melting/crystallization events.
# [6] = reslurry in EtOH/water (5% water), RT
# [7] = reslurry in Acetone/water (5% water), RT
# [8] = reslurry in Acetonitrile/water (5% water), RT
# [9] = reslurry in EA/water (5% water), RT
# [10] = reslurry in Heptane/water (5% water), RT
# [11] = reslurry in IPAc/water (5% water), RT
# [12] = reslurry in MA/water (5% water), 50° C.
# [13] = reslurry in MIBK/water (5% water), RT
# [14] = reslurry in MeOH/water (5% water), RT
# [15] = reslurry in MtBE/water (5% water), RT
# [16] = reslurry in n-Butyl acetate/water (5% water), RT
compound,measurement,setting,value
"CC(C)CC(=O)Nc1cncc(-c2ccc3[nH]nc(-c4nc5c(-c6cccc(F)c6)cncc5[nH]4)c3c2)c1 [Solvate 3, N-(5-(3-(7-(3-fluorophenyl)-3H-imidazo[4,5-c]pyridin-2-yl)-1H-indazol-5-yl)pyridin-3-yl)-3-methylbutanamide]",Dry (form by XRD),[1]; [6],Form 2
same,Wet (form by XRD),[1]; [6],Solvate 3
"CC(C)CC(=O)Nc1cncc(-c2ccc3[nH]nc(-c4nc5c(-c6cccc(F)c6)cncc5[nH]4)c3c2)c1 [Form 11, N-(5-(3-(7-(3-fluorophenyl)-3H-imidazo[4,5-c]pyridin-2-yl)-1H-indazol-5-yl)pyridin-3-yl)-3-methylbutanamide]",RH below which the hydrate lost its water,[2]; relative humidity,less than 20%
"CC(C)CC(=O)Nc1cncc(-c2ccc3[nH]nc(-c4nc5c(-c6cccc(F)c6)cncc5[nH]4)c3c2)c1 [Solvate 2, N-(5-(3-(7-(3-fluorophenyl)-3H-imidazo[4,5-c]pyridin-2-yl)-1H-indazol-5-yl)pyridin-3-yl)-3-methylbutanamide]",Dry (form by XRD),"[1]; reslurry in Acetone, 50° C.",Form 4**
same,Wet (form by XRD),"[1]; reslurry in Acetone, 50° C.",Solvate 2
same,Dry (form by XRD),[1]; [7],Form 4**
same,Wet (form by XRD),[1]; [7],Solvate 2
same,XRD after drying at 50° C. under vacuum,[2],remained the same as the solid exposed to air overnight
same,XRD after exposure to air overnight,[2],changed a little
"CC(C)CC(=O)Nc1cncc(-c2ccc3[nH]nc(-c4nc5c(-c6cccc(F)c6)cncc5[nH]4)c3c2)c1 [Form 4, N-(5-(3-(7-(3-fluorophenyl)-3H-imidazo[4,5-c]pyridin-2-yl)-1H-indazol-5-yl)pyridin-3-yl)-3-methylbutanamide]",thermodynamic stability between forms (competitive slurry),[3]; EA at RT and 50° C.,most stable
"CC(C)CC(=O)Nc1cncc(-c2ccc3[nH]nc(-c4nc5c(-c6cccc(F)c6)cncc5[nH]4)c3c2)c1 [Form 9, N-(5-(3-(7-(3-fluorophenyl)-3H-imidazo[4,5-c]pyridin-2-yl)-1H-indazol-5-yl)pyridin-3-yl)-3-methylbutanamide]",form before and after the DVS scan,[4]; DVS scan,did not change its form
same,water absorption (DVS scan),[4]; at 90% RH,0.8%
"CC(C)CC(=O)Nc1cncc(-c2ccc3[nH]nc(-c4nc5c(-c6cccc(F)c6)cncc5[nH]4)c3c2)c1 [Solvate 1, N-(5-(3-(7-(3-fluorophenyl)-3H-imidazo[4,5-c]pyridin-2-yl)-1H-indazol-5-yl)pyridin-3-yl)-3-methylbutanamide]",Dry (form by XRD),"[1]; reslurry in Acetone, RT",Low
same,Wet (form by XRD),"[1]; reslurry in Acetone, RT",Solvate 1
same,XRD after drying at 50° C. under vacuum,[2],still low crystallinity solid
same,XRD after exposure to air overnight,[2],converted to low crystallinity
"CC(C)CC(=O)Nc1cncc(-c2ccc3[nH]nc(-c4nc5c(-c6cccc(F)c6)cncc5[nH]4)c3c2)c1 [Form 2, N-(5-(3-(7-(3-fluorophenyl)-3H-imidazo[4,5-c]pyridin-2-yl)-1H-indazol-5-yl)pyridin-3-yl)-3-methylbutanamide]",form after heating (XRD),[5]; heated in a DSC machine to 90° C.,did not change
same,form after heating (XRD),[5]; heated to 270° C.,converted to low crystalline solids
same,form after heating (XRD),[5]; heated to 330° C.,converted to Form 9
same,form when heated to just before melting,[5]; heated to just before melting at 364° C.,convert to Form 9
same,thermodynamic stability between forms (competitive slurry),"[3]; MeOH, EtOH, and acetone system at both RT and 50° C.",most stable form
"CC(C)CC(=O)Nc1cncc(-c2ccc3[nH]nc(-c4nc5c(-c6cccc(F)c6)cncc5[nH]4)c3c2)c1 [Form 12, N-(5-(3-(7-(3-fluorophenyl)-3H-imidazo[4,5-c]pyridin-2-yl)-1H-indazol-5-yl)pyridin-3-yl)-3-methylbutanamide]",Dry (form by XRD),[1]; [8],Form 1
same,Wet (form by XRD),[1]; [8],Form 12
same,Dry (form by XRD),[1]; [9],Form 1
same,Wet (form by XRD),[1]; [9],Form 12
same,Dry (form by XRD),[1]; [10],Form 12
same,Wet (form by XRD),[1]; [10],Form 13
same,Dry (form by XRD),[1]; [11],Form 1
same,Wet (form by XRD),[1]; [11],Form 12
same,Dry (form by XRD),[1]; [12],Form 4
same,Wet (form by XRD),[1]; [12],Form 12
same,Dry (form by XRD),[1]; [13],Form 1
same,Wet (form by XRD),[1]; [13],Form 12
same,Dry (form by XRD),[1]; [14],Form 1
same,Wet (form by XRD),[1]; [14],Form 12
same,Dry (form by XRD),[1]; [15],Form 1
same,Wet (form by XRD),[1]; [15],Form 12
same,Dry (form by XRD),[1]; [16],Form 12
same,Wet (form by XRD),[1]; [16],Form 13
